Experimental data reported in PubChem BioAssay AID2305 (GlaxoSmithKline (GSK), 2010).

Each molecule was assayed on P. falciparum 3D7 growth, pLDH absorbance (assay: blood-stage malaria parasite growth potency – strain 3D7, dose response (AID 2305)).
In the case of `Cc1cc(N[C@@H](CC(C)C)C(=O)Nc2ccccc2)nc(NCC2CCCCC2)n1`, the IC50 is reported as 870 nM.
`CC(C)(C)c1ccc(-c2csc(NC(=O)CC(c3ccccc3)c3ccccc3)n2)cc1` was tested, and the IC50 was 1150 nM.
`CC(C)C[C@H](Nc1ccnc(NCC2CCCCC2)n1)C(=O)Nc1ccccc1` showed an IC50 of 1430 nM.
Work on `CC(C)=CCc1c(-c2ccc(O)cc2O)oc2c3c(cc(O)c2c1=O)OC(C)(C)C=C3` yielded an IC50 of 980 nM.
`CCCSc1nc2c(c(=O)n1Cc1ccco1)C1(CCCCC1)Cc1ccccc1-2` was tested, and the IC50 was 420 nM.
`CC(=O)COc1c(C2CCN(CCCCNC(=O)c3ccc(-c4ccc(C(F)(F)F)cc4)cc3)CC2)ccc2c1CCCC2` showed an IC50 of 780 nM.
For `CNC(=O)c1ccccc1Nc1nc(Nc2cccc(CS(C)(=O)=O)c2)ncc1C`, the IC50 was 530 nM.
`CC(C)COc1ccc2ccccc2c1CNCCCCCCNCc1c(OCC(C)C)ccc2ccccc12` showed an IC50 of 700 nM.
`O=C(NCc1cccc(F)c1)Nc1ccc(-c2cccc(-c3nc4ccc(F)cc4[nH]3)c2)cc1` gave an IC50 of 770 nM.
`Cc1[nH]n(-c2cccc(Cl)c2)c(=O)c1-c1ccc(Cl)cc1` showed an IC50 of 930 nM.
`Cc1[nH]c(C)c(-c2ccc(-c3ccc(OCC(F)(F)F)cc3)nc2)c(=O)c1Cl` was tested, and the IC50 was 390 nM.
`COc1ccc(CN2CCN(CCCCNC(=O)c3ccc(NC(=O)c4ccc(Cl)cc4)cc3)CC2)c(OC)c1` showed an IC50 of 890 nM.
`c1ccc(-c2cccc(-c3ccccn3)n2)nc1` gave an IC50 of 900 nM.
Molecule `COC(=O)c1ccc(CC(C)NCC(O)c2cccc(Cl)c2Cl)cc1` (centres undefined) has an IC50 of 550 nM.
For `O=[N+]([O-])c1cccc(C(Nc2ccccn2)c2ccc3cccnc3c2O)c1` (centres undefined), the IC50 was 1330 nM.
Work on `Cc1ccccc1N1CCN(c2ccc(C(=O)NC3CC3)cn2)CC1` yielded an IC50 of 460 nM.
With `Cc1nc2nc(N)nc(N)c2c(C)c1Cc1ccc([N+](=O)[O-])cc1` the IC50 was 440 nM.
With `CC1(C)CCC(C)(C)c2c1ccc(C1CCN(CCCCNC(=O)c3ccc(-c4ccc(C#N)cc4)cc3)CC1)c2OCC(N)=O` the IC50 was 420 nM.
For `CC(=O)Nc1cccc(C(=O)Nc2cccc(-c3ccc(-c4nc5ccc(F)cc5[nH]4)s3)c2)c1`, the IC50 was 900 nM.
`CCn1nc(C(=O)NC2CCOc3ccccc32)c2ccccc2c1=O` (centres undefined) showed an IC50 of 1230 nM.
In the case of `O=C(Nc1cccc(CN2CCN(Cc3cccc(O)c3)CC2)c1)c1cc2ccccc2s1`, the IC50 is reported as 1120 nM.
In the case of `O=S(=O)(Nc1ccc2nccc(N3CCNCC3)c2c1)c1ccc(-c2ccccc2)cc1`, the IC50 is reported as 980 nM.
In the case of `CNC(=O)C(NC(=O)c1ccccc1C(=O)OC)c1ccccc1` (centres undefined), the IC50 is reported as 560 nM.
With `Nc1c2ccccc2nc2cc(C(F)(F)F)ccc12` the IC50 was 840 nM.
Work on `CCCCCN(C(=O)Nc1cc(C(F)(F)F)cc(C(F)(F)F)c1)C(C)c1nc2ccccc2c(=O)n1CC` (centres undefined) yielded an IC50 of 790 nM.
`Cc1[nH]cnc1-c1cccc(NC(=O)c2cc3ccccc3s2)c1` gave an IC50 of 210 nM.
`C[C@H](NC(=O)[C@H](CCCCNC(=O)OC(C)(C)C)NC(=O)OC(C)(C)c1ccc(-c2ccccc2)cc1)C(=O)OCc1ccccc1` was tested, and the IC50 was 180 nM.
Work on `C=CCn1c(=N)n(CC(O)c2ccc(Cl)c(Cl)c2)c2ccccc21` (centres undefined) yielded an IC50 of 340 nM.
`COc1cccc(CC(=O)N2CCC(n3c(C)nc4ccc(C)cc43)CC2)c1` showed an IC50 of 110 nM.
`Cc1cc(C(=O)NCc2ccc(-c3c(C)noc3C)cc2)n(-c2ccc(Cl)cc2)n1` was tested, and the IC50 was 530 nM.
`CCOCCCn1c(=N)c(C(=O)NCc2ccc(F)cc2)cc2c(=O)n3cccc(C)c3nc21` showed an IC50 of 530 nM.
In the case of `O=C(Nc1ccc2c(c1)CCC2)c1cnc(N2CCN(c3ccncc3)CC2)c(Cl)c1`, the IC50 is reported as 1110 nM.
With `Cn1nc(C(F)(F)F)c(-c2ccc(F)cc2)c1NC(=O)Nc1ccc(F)cc1F` the IC50 was 760 nM.
For `CCOC(=O)C(NC(=O)c1ccc([N+](=O)[O-])o1)C(C)C` (centres undefined), the IC50 was 1060 nM.
With `CN1CCN(CCNc2c3ccccc3nc3ccc4ccccc4c23)CC1` the IC50 was 530 nM.
Molecule `Cc1[nH]c(C)c(-c2ccc(OCc3cc(C(F)(F)F)cc(C(F)(F)F)c3)nc2)c(=O)c1Cl` has an IC50 of 110 nM.
With `C[C@H](NC(=O)c1c(OC2CN(C(c3ccccc3)c3ccccc3)C2)c(-c2ccccc2)nc2ccccc12)C1CCCCC1` the IC50 was 980 nM.
For `COc1ccc(CNCc2cccc(-c3cccc(-c4nc5ccccc5[nH]4)c3)c2)cc1`, the IC50 was 370 nM.
`CCCCCN1C(=O)C(c2ccccc2)(c2ccccc2)N=C1N` showed an IC50 of 790 nM.
